Data reported in patent publication US20240368151A1, “NOVEL ERGOLINES AND METHODS OF TREATING MOOD DISORDERS” (priority 2021, published 2024).
Read-outs that look alike come from different tables or passages of the source.

How the values were obtained:
5-HT2A receptor [1] = molecular target: T1, 5-HT2A receptor (Homo sapiens (Human), UniProt P28223); assay type: cell-based; conditions: Ca^2+ flux, HEK293
Protocol: (§1) Functional Assays at 5-HT2A, 5-HT2B, and 5-HT1A. Agonist activity at 5-HT2A, 5-HT2B, and 5-HT1A receptors was determined using a FLIPR Ca^2+ flux assay at WuXi AppTec (Hong Kong) Limited according to their standard protocols. Briefly, stably transfected cells expressing the receptor of interest (HEK293 for 5-HT2A and 5-HT2B; CHO cells for 5-HT1A) were grown and plated in a 384 well plate and incubated at 37° C. and 5% CO2 overnight. A solution of 250 mM probenecid in 1 mL FLIPR assay buffer was prepared fresh. This was combined with a fluorescent dye (Fluo-4 Direct™) to make a final assay concentration of 2.5 mM. […] The fluorescent dye was then added to the assay plate along with assay buffer to a final volume of 40 μL. The cell plate was incubated for 50 min at 37° C. and 5% CO2 and placed into the FLIPR Tetra along with the compound plate. 10p L of references and compounds were then transferred from the compound plate into the cell plate and the fluorescent signal was read.

5-HT2B receptor = 5-HT2B receptor (Homo sapiens (Human), UniProt P41595); assay: FLIPR Ca^2+ flux agonist assay at 5-HT2B; assay type: cell-based; conditions: HEK293
Protocol: as §1

5-HT1A receptor = 5-HT1A receptor (Homo sapiens (Human), UniProt P08908); assay: FLIPR Ca^2+ flux agonist assay at 5-HT1A; assay type: cell-based; conditions: CHO cells
Protocol: as §1

5-HT1B receptor = 5-HT1B receptor (Homo sapiens (Human), UniProt P28222); assay: cAMP accumulation agonist assay at 5-HT1B; assay type: cell-based
Protocol: Functional Assay at 5-HT1B. Agonist activity at 5-HT1B was determined using a cAMP accumulation protocol at WuXi AppTec (Hong Kong) Limited according to their standard protocols. Briefly, stably transfected cells were plated in an OptiPlate-384 well plate, incubated at RT for 60 mins, and cAMP standard solution (800 nM, 10 μL) was added to the blank well. Then, 10 μL detection reagent was added to each well, the plate incubated for 60 mins at RT, and the plate read using EnVision.

[2] = Metabolic stability in human liver microsomes (HLM); assay type: in vitro ADME; conditions: for half-life at 1 μM: both sexes, human, pooled human liver microsomes, pH 7.4, NADPH
From the text: HLM Stability. Pooled HLM from adult male and female donors (Corning 452117) were used.

[3] = Metabolic stability in mouse liver microsomes (MLM); assay type: in vitro ADME; conditions: NADPH; for half-life at 1 μM: mouse, pooled mouse liver microsomes, pH 7.4, MLM (CD-1)
From the text: MLM Stability Pooled MLM from CD-1 mice (BIOIVT M00501) were used.

[4] = Metabolic stability in rat liver microsomes (RLM); assay type: in vitro ADME; conditions: for half-life at 1 μM: both sexes, rat, pooled rat liver microsomes, pH 7.4, NADPH
human 5-HT2C receptor = human 5-HT2C receptor (Homo sapiens (Human), UniProt P28335); assay type: cell-based
5-HT2A receptor [5] = molecular target: T1, 5-HT2A receptor; assay type: cell-based; conditions: beta-arrestin recruitment
Protocol: The degree of arrestin bias varied substantially across the other compounds tested as well.
Arrestin Functional Assay at 5-HT2A. Recruitment of beta-arrestin was determined using a PathHunter assay at Eurofins DiscoverX (Fremont, CA) according to their standard protocols. PathHunter GPCR beta-arrestin assays take advantage of DiscoverX's proprietary Enzyme Fragment Complementation technology. The GPCR is fused in frame with a small enzyme donor fragment ProLink™ (PK) and co-expressed in cells stably expressing a fusion protein of beta-arrestin and the larger, N-terminal deletion mutant of beta-galactosidase. Activation of the GPCR (5-HT2A receptor in this case) stimulates binding of beta-arrestin to the PK-tagged GPCR and forces complementation of the two enzyme fragments, resulting in the formation of an active beta-galactosidase enzyme. This interaction leads to an increase in enzyme activity that can be measured using chemiluminescent PathHunter Detection Reagents. Briefly, PathHunter cells expressing 5-HT2A receptors were seeded in a volume of 20 μL into 384-well plates and incubated at 37° C. for the appropriate time prior to testing. […] Plates were then imaged on a microplate reader and the agonist activity was calculated using the following formula: % Activity=100%×(mean RLU of test sample−mean RLU of vehicle control)/(mean MAX control ligand−mean RLU of vehicle control), where RLU=relative light units.

C57BL/6 mice = assay: Mouse head twitch response (HTR) assay; assay type: in vivo; conditions: mouse HTR, SC; for # HTR at Most Efficacious Dose / Emax (95% CI): 20 min observation; for Emax (95% CI): curve fit
Protocol: Agonists of the 5-HT2A receptor are well known to induce this effect in rodents and the potency of this HTR is correlated with hallucinogenic potency in humans.
Animals. Adult male C57BL/6 mice, aged 6-8 weeks (body weight 20-25 g) were used in this experiment. Animals were housed under controlled temperatures and 12-hour light/dark cycles (lights on between 07:00-19:00 h), with ad libitum food and water. This study was carried out in strict accordance with the requirements of the Committee for the Purpose of Control and Supervision of Experiments on Animals (CPCSEA), India. All efforts were made to minimize suffering.
Drugs and Drug Administration. Compound 1 was synthesized as described above. It was administered subcutaneously (SC) dissolved in saline vehicle at a volume of 10 mL/kg. Five doses were tested, with n=6 animals/group. Doses were calculated on the basis of the freebase.
Procedure. Mice were administered one dose of the drug and immediately placed into a small open field for behavioral observation. Animals were observed continuously for 20 mins and the number of head twitches (HTs) were counted by an observer blind to the treatment condition.
Statistical Analysis. The data points shown are the mean±standard error of the mean (SEM). Analysis was performed using GraphPad Prism 6. Curves were fit using a non-linear gaussian distribution to calculate ED50 and Emax values.
Additional disclosed compounds were tested in the mouse head twitch response (HTR) assay according to the procedure described in Example 34. […] Lastly, compounds with much larger benzyl and phenethyl substituents on the amine nitrogen (e.g., 10 and 11) were low efficacy in this assay, consistent with their lower maximal efficacy in the arrestin functional assay (see Example 32).

Chain of 5-HT2B receptor (P41595 whole entry, looked up): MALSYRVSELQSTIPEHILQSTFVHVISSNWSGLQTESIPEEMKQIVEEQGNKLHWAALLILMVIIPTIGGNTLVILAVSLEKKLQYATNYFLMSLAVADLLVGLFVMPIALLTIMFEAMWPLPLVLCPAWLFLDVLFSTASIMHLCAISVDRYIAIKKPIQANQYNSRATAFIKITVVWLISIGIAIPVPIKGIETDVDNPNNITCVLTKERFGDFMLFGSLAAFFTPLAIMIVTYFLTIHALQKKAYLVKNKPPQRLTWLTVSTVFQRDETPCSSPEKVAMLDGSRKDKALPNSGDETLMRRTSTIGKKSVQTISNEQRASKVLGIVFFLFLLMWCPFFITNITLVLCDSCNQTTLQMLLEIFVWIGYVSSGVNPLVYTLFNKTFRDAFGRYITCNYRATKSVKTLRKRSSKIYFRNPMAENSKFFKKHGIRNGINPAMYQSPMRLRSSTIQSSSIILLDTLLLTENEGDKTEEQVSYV
Chain of human 5-HT2C receptor (P28335 33-458 limits assumed): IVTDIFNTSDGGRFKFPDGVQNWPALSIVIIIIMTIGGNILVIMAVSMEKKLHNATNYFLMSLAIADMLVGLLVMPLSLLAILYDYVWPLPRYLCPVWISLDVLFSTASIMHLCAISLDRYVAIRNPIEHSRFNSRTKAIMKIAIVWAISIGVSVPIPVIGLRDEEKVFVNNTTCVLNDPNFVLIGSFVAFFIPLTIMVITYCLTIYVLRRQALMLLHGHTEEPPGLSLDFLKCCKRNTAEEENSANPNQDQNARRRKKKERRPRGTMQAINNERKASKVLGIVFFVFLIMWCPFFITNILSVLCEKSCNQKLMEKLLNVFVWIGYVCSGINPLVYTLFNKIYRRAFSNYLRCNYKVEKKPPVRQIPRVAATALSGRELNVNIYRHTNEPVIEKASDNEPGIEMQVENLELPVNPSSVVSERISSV
Chain of 5-HT1B receptor (P28222 whole entry, looked up): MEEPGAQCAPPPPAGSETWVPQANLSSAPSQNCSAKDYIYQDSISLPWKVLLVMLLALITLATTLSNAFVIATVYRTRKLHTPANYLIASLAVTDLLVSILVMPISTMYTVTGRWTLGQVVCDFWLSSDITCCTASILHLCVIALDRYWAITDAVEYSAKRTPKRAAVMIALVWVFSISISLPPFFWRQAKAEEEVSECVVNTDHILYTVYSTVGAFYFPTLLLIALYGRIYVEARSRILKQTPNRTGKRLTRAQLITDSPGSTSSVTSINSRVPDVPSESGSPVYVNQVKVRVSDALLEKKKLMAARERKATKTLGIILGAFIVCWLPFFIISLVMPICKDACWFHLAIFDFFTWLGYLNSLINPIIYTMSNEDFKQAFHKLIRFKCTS

| SMILES | 5-HT2A % Act @ Max Dose (5-HT2A receptor [1]) | 5-HT2B % Act @ Max Dose (5-HT2B receptor) | 5-HT1A % Act @ Max Dose (5-HT1A receptor) | 5-HT1B % Act @ Max Dose (5-HT1B receptor) | half-life at 1 μM [2] | half-life at 1 μM [3] | half-life at 1 μM [4] | 5-HT2C % Act @ Max Dose (human 5-HT2C receptor) | 5-HT2A Arrestin % Act @ Max Dose (5-HT2A receptor [5]) | agonist type in the 5-HT2A arrestin recruitment assay, in words (5-HT2A receptor [5]) | Most Efficacious Dose (C57BL/6 mice) | # HTR at Most Efficacious Dose (C57BL/6 mice) | Emax (95% CI) (C57BL/6 mice) | Clint ([2]; 1 μM, NADPH) | t1/2 ([2]; 1 μM, NADPH) | Clint ([3]; MLM (CD-1), 1 μM) | t1/2 ([3]; MLM (CD-1), 1 μM) | Clint ([4]; 1 μM, NADPH) | t1/2 ([4]; 1 μM, NADPH) | 5-HT2C % Act @ Max Dose (human 5-HT2C receptor; Ca^2+ flux) |
| --- | --- | --- | --- | --- | --- | --- | --- | --- | --- | --- | --- | --- | --- | --- | --- | --- | --- | --- | --- | --- |
| CCN(CC)C(=O)[C@@H]1C=C2c3cccc4[nH]cc(c34)C[C@H]2N(Cc2ccccn2)C1 [Compound 22, (6aR,9R)-N,N-diethyl-7-(pyridin-2-ylmethyl)-4,6,6a,7,8,9-hexahydroindolo[4,3-fg]quinoline-9-carboxamide] | 64.47% | 7.74% | 57.33% | 89.15% | 23.8 min | 9.2 min | 13.2 min | – | – | – | – | – | – | – | – | – | – | – | – | – |
| CCN(CC)C(=O)[C@@H]1C=C2c3cccc4[nH]cc(c34)C[C@H]2N(Cc2cccc(OC)c2)C1 [Compound 18, (6aR,9R)-N,N-diethyl-7-(3-methoxybenzyl)-4,6,6a,7,8,9-hexahydroindolo[4,3-fg]quinoline-9-carboxamide] | 61.09% | 4.69% | 28.93% | 83.31% | 13.6 min | 2.6 min | 5.3 min | – | – | – | – | – | – | – | – | – | – | – | – | – |
| CCN(CC)C(=O)[C@@H]1C=C2c3cccc4[nH]cc(c34)C[C@H]2N(CCc2ccc(OC)cc2)C1 [Compound 21, (6aR,9R)-N,N-diethyl-7-(4-methoxyphenethyl)-4,6,6a,7,8,9-hexahydroindolo[4,3-fg]quinoline-9-carboxamide] | 51.23% | 1.73% | 8.2% | 79.13% | 3.8 min | 1.9 min | 4.3 min | – | – | – | – | – | – | – | – | – | – | – | – | – |
| CCN(CC)C(=O)[C@@H]1C=C2c3cccc4[nH]cc(c34)C[C@H]2N(CCc2ccccn2)C1 [Compound 23, (6aR,9R)-N,N-diethyl-7-(2-(pyridin-2-yl)ethyl)-4,6,6a,7,8,9-hexahydroindolo[4,3-fg]quinoline-9-carboxamide] | 85.397% | 12.50% | 46.19% | 83.68% | 7.2 min | 1.8 min | 4.2 min | – | – | – | – | – | – | – | – | – | – | – | – | – |
| CCN(CC)C(=O)[C@@H]1C=C2c3cccc4[nH]cc(c34)C[C@H]2N(CCc2cccc(OC)c2)C1 [Compound 20, (6aR,9R)-N,N-diethyl-7-(3-methoxyphenethyl)-4,6,6a,7,8,9-hexahydroindolo[4,3-fg]quinoline-9-carboxamide] | 77.19% | 3.60% | 3.85% | 34.59% | 2.1 min | 0.9 min | 1.2 min | – | – | – | – | – | – | – | – | – | – | – | – | – |
| CC[C@@H](C)NC(=O)[C@@H]1C=C2c3cccc4[nH]cc(c34)C[C@H]2N(CC)C1 [Compound 5] | 102.81% | 84.77% | 107.87% | – | – | – | – | 114.5% | 105.72% | full agonists | (0.32 mg/kg) | 17.667 | 15.22 | 62.3 µL/min/mg | 22.2 min | 170.4 µL/min/mg | 8.1 min | 72.0 µL/min/mg | 19.3 min | – |
| CC[C@@H](C)NC(=O)[C@@H]1C=C2c3cccc4[nH]cc(c34)C[C@H]2N(C)C1 [Int8, (6aR,9R)-N-((R)-sec-butyl)-7-methyl-4,6,6a,7,8,9-hexahydroindolo[4,3-fg]quinoline-9-carboxamide] | 96.25% | 17.7% | 90.25% | – | 64.9 min | 39.9 min | 99.5 min | – | 46.06% | partial agonists | (1 mg/kg) | 13.5 | 14.34 | – | – | – | – | – | – | 98.245% |
| CCN(CC)C(=O)[C@@H]1C=C2c3cccc4[nH]cc(c34)C[C@H]2N(Cc2ccc(OC)cc2)C1 [Compound 19, (6aR,9R)-N,N-diethyl-7-(4-methoxybenzyl)-4,6,6a,7,8,9-hexahydroindolo[4,3-fg]quinoline-9-carboxamide] | 70.54% | 2.44% | −0.65% | 71.08% | 16.8 min | 7.2 min | 10 min | – | – | – | – | – | – | – | – | – | – | – | – | – |
| CCN(CC)C(=O)[C@@H]1C=C2c3cccc4[nH]cc(c34)C[C@H]2N(Cc2ccccc2O)C1 [Compound 16, (6aR,9R)-N,N-diethyl-7-(2-hydroxybenzyl)-4,6,6a,7,8,9-hexahydroindolo[4,3-fg]quinoline-9-carboxamide] | 62.05% | 26.497% | 22.29% | 90.1% | 4.9 min | 1.3 min | 2.2 min | – | – | – | – | – | – | – | – | – | – | – | – | – |
| C=CCN1C[C@H](C(=O)N[C@H](C)CC)C=C2c3cccc4[nH]cc(c34)C[C@H]21 [Compound 8, (6aR,9R)-7-allyl-N-((R)-sec-butyl)-4,6,6a,7,8,9-hexahydroindolo[4,3-fg]quinoline-9-carboxamide] | 99.25% | 91.56% | 116.41% | – | 7.9 min | 3.7 min | 7.7 min | – | 112.42% | full agonists | (1 mg/kg) | 15.75 | 12.03 | – | – | – | – | – | – | 108.26% |
